The subject of one data set is normal rats. In words: Blood glucose in normal rats, transdermal. The conditions noted are these: baseline of the treatment group; no fasting. Format: in vivo.
The subject of data set [1] is SLAC/GK rats, type 2 diabetes. In words: Blood glucose in type 2 diabetic rats, transdermal. Format: in vivo. The conditions noted are these: no fasting. The source says: (§1) The pro-drugs in this invention lower blood glucose levels in rat models (SLAC/GK, type 2 diabetes, n=7). 50% acetone solution of diethylaminoethyl acetylsalicylate.acetylsaficylic acid salt (P-1, in acetone); 4-acetamidophenyl salicylyldimethylaminobutyrate.HCl (P-6), diethylaminoethyl 5-(2,4-difluorophenyl) acetylsalicylate.5-(2,4-difluorophenyl) acetylsalicylic acid salt (P-8), diethylaminoethyl salicylsalicylate.AcOH (P-9), diethylaminoethyl salicylate.AcOH (P-10), diethylaminoethyl 5-acetamido-acetylsalicylate (P-58), diethylaminoethyl acetylsalicylsalicylate. acetylsalicylsalicylic acid salt (P-59), diethylaminoethyl acetylsalicylsalicylate. acetylsalicylsalicylsalicylic acid salt (P-60) (equal to of 20 mg/kg of NSAIAs) were administered transdermally to the backs (about 1.5 cm^2) of rats (fur was shaved) once per day (at 8 am) for 5 weeks. The blood glucose levels were measured once every 3 days at 4 pm (no fasting) from the second week to the fifth week. The blood lipid levels were measured at the end of the fifth week.

Data set [2] deals with SLAC:NOD-IDDM mice, type 1 diabetes. The experiment in a line: Blood glucose in type 1 diabetic mice, transdermal. The conditions noted are these: no fasting. In kind it is in vivo. An excerpt:
The pro-drugs in this invention lower blood glucose levels in mouse models (SLAC:NOD-IDDM, type 1 diabetes, n=7). 20% acetone solution of diethylaminoethyl acetylsalicylate.acetylsalicylic acid salt (P-1, in acetone); 4-acetamidophenyl salicylyldimethylaminobutyrate.HCl (P-6), diethylaminoethyl 5-(2,4-difluorophenyl) acetylsalicylate.5-(2,4-difluorophenyl) acetylsalicylic acid salt (P-8), diethylaminoethyl salicylsalicylate.AcOH (P-9), diethylaminoethyl salicylate.AcOH (P-10), diethylaminoethyl 5-acetamido-acetylsalicylate (P-58), diethylaminoethyl acetylsalicylsalicylate. acetylsalicylsalicylic acid salt (P-59), diethylaminoethyl acetylsalicylsalicylate. acetylsalicylsalicylsalicylic acid salt (P-60) (equal to of 20 mg/kg of NSAIAs) were administered transdermally to the backs (about 1 cm^2) of mice (fur was shaved) once per day (at 8 am) for 7 weeks. The blood glucose levels were measured once every 3 days at 3 pm (no fasting) from the fourth week to the seventh week.

The next data set deals with Chinese White rabbits. In words: Autologous blood clot pulmonary embolism model, thrombus propagation. In kind it is in vivo. The conditions noted are these: 15 mg/kg topically on the back; after 2 days. As to the method: Eighteen Chinese White rabbits weighing between 3.0 and 3.5 kg (aged 6-7 months) were selected and divided into three groups (control, P-1 and […] groups, n=6). One hour before the experiment, thrombi were made by aspirating venous blood (1 ml) into a sterilized bottle to clot. To avoid fragmentation and slow lysis, the autologous blood clots were stabilized in temperature-controlled (70° C.) distilled water for 10 min. After anesthesia, the femoral veins were exposed and distally isolated, and autologous blood clots (0.05 g/kg) were injected through an indwelling catheter (20GA), which had been placed in the femoral vein isolated earlier. 50% acetone solution of diethylaminoethyl acetylsalicylate.acetylsalicylic acid salt (P-1, in acetone, 15 mg/kg) and diethylaminoethyl acetylsalicylsalicylate.acetylsalicylsalicylic acid salt (P-59, 15 mg/kg) were topically applied to the back of the rabbits. After 2 days, rabbits were euthanized with an excessive intravenous injection of sodium amobarbital (60 mg/kg). The lungs and hearts were isolated to observe whether thrombi were present in the pulmonary arteries. The lungs were immersed in 10% formalin for 24 h. Consecutive transverse sections along the obstructed pulmonary arteries were paraffin-embedded and stained with hematoxylin-eosine. […]

The test system of data set [3] is SLAC/GK rats, type 2 diabetes. The experiment in a line: Blood lipid levels in type 2 diabetic rats, transdermal. Format: in vivo. The conditions noted are these: end of fifth week; transdermal, equal to 20 mg/kg of NSAIAs once per day.
Source text: as §1

For data set [4] the following is noted: prodrug versus testosterone (TS); cited from earlier work.
The mark [5] stands for this setting: baseline of the treatment group.

Structures are written as SMILES.

For `CC(=O)Oc1ccccc1C(=O)Oc1ccccc1C(=O)O.CCN(CC)CCOC(=O)c1ccccc1OC(=O)c1ccccc1OC(C)=O` [P-59, diethylaminoethyl acetylsalicylsalicylate. acetylsalicylsalicylic acid salt], the “Blood glucose, normal rats, Baseline” value in the data set with normal rats is given as 7.2 ± 1 mmol/L. Besides, the “Blood glucose, diabetic rats, Baseline” value in data set [1] (setting [5]) is listed as 16.3 ± 3 mmol/L. In data set [1] (transdermal, equal to 20 mg/kg of NSAIAs once per day for 5 weeks, measured every 3 days, second to fifth week), the “Blood glucose, diabetic rats, Average” value is 8.7 ± 1 mmol/L. Also, in data set [2] (setting [5]), the “Blood glucose, type I diabetic mice, Baseline” value is 24.3 ± 3 mmol/L. Moreover, the “Blood glucose, type I diabetic mice, Average” value in data set [2] (transdermal, equal to 20 mg/kg of NSAIAs once per day for 7 weeks, fourth to seventh week) was 8.7 ± 1 mmol/L. The “Histology of lung tissue and vascular walls after clot injection” value in the data set with Chinese White rabbits is “both lung tissue and vascular walls were normal”. The “Triglycerides, Average” value in data set [3] was 2.9 ± 0.2 mmol/L.

On to `CN(C)CCCC(=O)O[C@H]1CC[C@H]2[C@@H]3CCC4=CC(=O)CC[C@]4(C)[C@H]3CC[C@]12C.Cl` [TSBH, testosteronyl-4-dimethylaminobutyrate.HCl], for which the “Diffusion through human skin, times faster than the drug (TS) itself” value in data set [4] was about 60 times.

Values taken from patent US10233198B2, “Pro-drugs of NSAIAs with very high skin and membranes penetration rates and their new medicinal uses” (Techfields Pharma Co., Ltd., priority 2007, dated 2019).
